Reference: patent US9115147B2, “Tricyclic derivatives and their pharmaceutical use and compositions” (Cephalon, Inc., priority 2009, dated 2015)
Where two headings read alike, the source gives them in different places.

Columns and labels:
human 5-HT6 receptor = target: T1, human 5-HT6 receptor (Homo sapiens, UniProt P50406); experiment: Human 5-HT6 Receptor Binding Assay ([3H]LSD, scintillation beads); conditions: membranes of CHO-K1 cells with recombinant human 5-HT6 receptor, 4 nM [3H]LSD
T1 construct: host or cells: CHO-K1 cells, stably transfected; membranes prepared in house
Outline: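 Membranes from CHO-K1 cells stably expressing human 5-HT6, 1.75 μg protein/well with scintillation beads, in 50 mM Tris pH 7.4, 4 mM CaCl2, saponin, ascorbic acid. Nonspecific binding with 10 μM serotonin. IC50 from variable-slope fit; Ki by Cheng-Prusoff.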

rats [1] = conditions: compared to an untreated control group; cited from earlier work
rats [2] = conditions: rat model of tonic, persistent pain; cited from earlier work
[3] = Cheng-Prusoff, read-out: Human 5-HT6 Ki app

T1 sequence (P50406 whole entry): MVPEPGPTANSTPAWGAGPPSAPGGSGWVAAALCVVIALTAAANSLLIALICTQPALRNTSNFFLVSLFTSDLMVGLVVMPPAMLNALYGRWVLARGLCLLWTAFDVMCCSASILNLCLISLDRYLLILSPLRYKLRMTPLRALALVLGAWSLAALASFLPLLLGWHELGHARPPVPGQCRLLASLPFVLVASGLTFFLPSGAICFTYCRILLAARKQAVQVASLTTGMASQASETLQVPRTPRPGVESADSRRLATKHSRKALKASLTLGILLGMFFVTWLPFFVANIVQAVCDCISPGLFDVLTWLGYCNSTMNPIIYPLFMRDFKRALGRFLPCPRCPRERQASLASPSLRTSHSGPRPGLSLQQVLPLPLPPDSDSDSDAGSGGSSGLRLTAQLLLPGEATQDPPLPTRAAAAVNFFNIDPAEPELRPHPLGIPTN

Ki (human 5-HT6 receptor; [3]) [µM]	SMILES	also measured
> 1	Cc1cccc(Sc2ccc3c(c2)OCC2C3CCN2C2CCC2)n1 (single isomer, unassigned) [Example 82, 3-cyclobutyl-7-[(6-methylpyridin-2-yl)sulfanyl]-1,2,3,3a,4,9b-hexahydrochromeno[3,4-b]pyrrole]	–
> 1	Cc1cccc([S+]([O-])c2ccc3c(c2)OCC2C3CCN2C2CCC2)n1 (single isomer, unassigned) [Example 83, 3-cyclobutyl-7-[(6-methylpyridin-2-yl)sulfinyl]-1,2,3,3a,4,9b-hexahydrochromeno[3,4-b]pyrrole]	–
> 1	Cc1cccc(S(=O)(=O)c2ccc3c(c2)OCC2C3CCN2C2CCC2)n1 (single isomer, unassigned) [Example 85, 3-cyclobutyl-7-[(6-methylpyridin-2-yl)sulfonyl]-1,2,3,3a,4,9b-hexahydrochromeno[3,4-b]pyrrole]	–
> 1	O=S(=O)(c1cncc(C(F)(F)F)c1)c1ccc2c(c1)OCC1C2CCN1C1CCC1 (single isomer, unassigned) [Example 87, 3-cyclobutyl-7-{[5-(trifluoromethyl)pyridin-3-yl]sulfonyl}-1,2,3,3a,4,9b-hexahydrochromeno[3,4-b]pyrrole]	–
< 0.5	O=S(=O)(c1ccccc1)c1ccc2c(c1)C1CCN(C3CCC3)C1CO2 (single isomer, unassigned) [Example 89, 3-cyclobutyl-8-(phenylsulfonyl)-1,2,3,3a,4,9b-hexahydrochromeno[3,4-b]pyrrole]	–
< 0.5	CC(C)CN1CCC2c3ccc(S(=O)(=O)c4ccccc4)cc3OCC21 (single isomer, unassigned) [Example 91, 3-(2-methylpropyl)-7-(phenylsulfonyl)-1,2,3,3a,4,9b-hexahydrochromeno[3,4-b]pyrrole]	–
< 0.5	CC(C)CCCN1CCC2c3ccc(S(=O)(=O)c4ccccc4)cc3OCC21 (single isomer, unassigned) [Example 94, 3-(4-methylpentyl)-7-(phenylsulfonyl)-1,2,3,3a,4,9b-hexahydrochromeno[3,4-b]pyrrole]	–
> 1	CC(C)CN1CCC2c3ccc(S(=O)(=O)c4ccccc4)cc3OCC21 (single isomer, unassigned) [Example 98, 3-(2-methylpropyl)-7-(phenylsulfonyl)-1,2,3,3a,4,9b-hexahydrochromeno[3,4-b]pyrrole]	–
> 1	O=S(=O)(c1ccccc1)c1ccc2c(c1)OCC1C2CCN1Cc1ccccc1 (single isomer, unassigned) [Example 102, 3-benzyl-7-(phenylsulfonyl)-1,2,3,3a,4,9b-hexahydrochromeno[3,4-b]pyrrole]	–
< 0.5	CC(C)Oc1cc(F)cc(S(=O)(=O)c2ccc3c(c2)OCC2NCCC32)c1 (single isomer, unassigned) [Example 108, 7-{[3-fluoro-5-(propan-2-yloxy)phenyl]sulfonyl}-1,2,3,3a,4,9b-hexahydrochromeno[3,4-b]pyrrole]	–

Continued, compound first:

SMILES	Ki (human 5-HT6 receptor; [3]) [µM]	also measured
O=S(=O)(c1cncc(Cl)c1)c1ccc2c(c1)OCC1C2CCN1C1CCC1 (single isomer, unassigned) [Example 81, 7-[(5-chloropyridin-3-yl)sulfonyl]-3-cyclobutyl-1,2,3,3a,4,9b-hexahydrochromeno[3,4-b]pyrrole]	> 1	–
Cc1cccc(S(=O)(=O)c2ccc3c(c2)OCC2C3CCN2C2CCC2)n1 (single isomer, unassigned) [Example 84, 3-cyclobutyl-7-[(6-methylpyridin-2-yl)sulfonyl]-1,2,3,3a,4,9b-hexahydrochromeno[3,4-b]pyrrole]	> 1	–
O=S(=O)(c1cncc(C(F)(F)F)c1)c1ccc2c(c1)OCC1C2CCN1C1CCC1 (single isomer, unassigned) [Example 86, 3-cyclobutyl-7-{[5-(trifluoromethyl)pyridin-3-yl]sulfonyl}-1,2,3,3a,4,9b-hexahydrochromeno[3,4-b]pyrrole]	> 1	–
O=S(=O)(c1ccccc1)c1ccc2c(c1)C1CCN(C3CCC3)C1CO2 (single isomer, unassigned) [Example 88, 3-cyclobutyl-8-(phenylsulfonyl)-1,2,3,3a,4,9b-hexahydrochromeno[3,4-b]pyrrole]	< 0.5	–
O=S(=O)(c1ccccc1)c1ccc2c(c1)OCC1C2CCN1CCO (single isomer, unassigned) [Example 90, 2-[7-(Phenylsulfonyl)-1,3a,4,9b-tetrahydrochromeno[3,4-b]pyrrol-3(2H)-yl]ethanol]	< 0.5	–
COCCN1CCC2c3ccc(S(=O)(=O)c4ccccc4)cc3OCC21 (single isomer, unassigned) [Example 92, 3-(2-methoxyethyl)-7-(phenylsulfonyl)-1,2,3,3a,4,9b-hexahydrochromeno[3,4-b]pyrrole]	< 0.5	–
O=S(=O)(c1ccccc1)c1ccc2c(c1)OCC1C2CCN1CCCO (single isomer, unassigned) [Example 93, 3[7-(phenylsulfonyl)-1,3a,4,9b-tetrahydrochromeno[3,4-b]pyrrol-3(2H)-yl]propan-1-ol]	< 0.5	–
O=S(=O)(c1ccccc1)c1ccc2c(c1)OCC1C2CCN1Cc1ccccc1 (single isomer, unassigned) [Example 95, 3-benzyl-7-(phenylsulfonyl)-1,2,3,3a,4,9b-hexahydrochromeno[3,4-b]pyrrole]	< 0.5	–
O=S(=O)(c1ccccc1)c1ccc2c(c1)OCC1C2CCN1CCc1ccccc1 (single isomer, unassigned) [Example 96, 3-(2-phenylethyl)-7-(phenylsulfonyl)-1,2,3,3a,4,9b-hexahydrochromeno[3,4-b]pyrrole]	< 0.5	–
O=S(=O)(c1ccccc1)c1ccc2c(c1)OCC1C2CCN1CCO (single isomer, unassigned) [Example 97, 2-[7-(phenylsulfonyl)-1,3a,4,9b-tetrahydrochromeno[3,4-b]pyrrol-3(2H)-yl]ethanol]	< 0.5	Ki (human 5-HT6 receptor; actual data, read-out: Human 5-HT6 Ki): 0.221 µM
COCCN1CCC2c3ccc(S(=O)(=O)c4ccccc4)cc3OCC21 (single isomer, unassigned) [Example 99, 3-(2-methoxyethyl)-7-(phenylsulfonyl)-1,2,3,3a,4,9b-hexahydrochromeno[3,4-b]pyrrole]	> 1	–
O=S(=O)(c1ccccc1)c1ccc2c(c1)OCC1C2CCN1CCCO (single isomer, unassigned) [Example 100, 3-[7-(phenylsulfonyl)-1,3a,4,9b-tetrahydrochromeno[3,4-b]pyrrol-3(2H)-yl]propan-1-ol]	< 0.5	–
CC(C)CCCN1CCC2c3ccc(S(=O)(=O)c4ccccc4)cc3OCC21 (single isomer, unassigned) [Example 101, 3-(4-methylpentyl)-7-(phenylsulfonyl)-1,2,3,3a,4,9b-hexahydrochromeno[3,4-b]pyrrole]	> 1	–
O=S(=O)(c1ccccc1)c1ccc2c(c1)OCC1C2CCN1CCc1ccccc1 (single isomer, unassigned) [Example 103, 3-(2-phenylethyl)-7-(phenylsulfonyl)-1,2,3,3a,4,9b-hexahydrochromeno[3,4-b]pyrrole]	> 1	–
CN1CCN(c2cccc3c(S(=O)(=O)c4ccccc4)c[nH]c23)CC1 [RO 4368554]	–	non-REM (NREM) sleep (rats [1]): increase
COc1ccc(NS(=O)(=O)c2sc3ccc(Cl)cc3c2C)cc1N1CCNCC1 [SB-271046]	–	antinociceptive effect (rats [2]): short-lived, antinociceptive effect
